Test results taken from PMC5481773, “Structural insights into the function of ZRANB3 in replication stress response” (Nature Communications, 2017).

Legend:
ZRANB3 = ZRANB3 nuclease assay with non-hydrolysable ATP analogues; assay type: biochemical, Human; conditions: wild-type ZRANB3, fluorescently labelled DNA substrate, native PAGE (Fig. 3d)
From the text: Figure 3 Characterisation of the ZRANB3 HNH active site. (a) Overlay of the T4 endonuclease VII (yellow) and the ZRANB3 HNH (white) structures. […] (b) Overlay of the T4 endonuclease VII (yellow, labels in italics) and the ZRANB3 HNH (white) structures. Mg^2+ ion in T4 endonuclease is shown as a purple sphere. His1021, Asp1020 and His1045 in the HNH structure overlap with the active site residues of T4 endonuclease VII. (c) Nuclease assay with the wild-type and mutant ZRANB3 proteins in the presence and absence of ATP. Reactions were analysed by native poly-acrylamide gel electrophoresis. Indicated are mobilities of the fluorescently labelled DNA substrate and product. (d) Nuclease assay with non-hydrolysable ATP homologues. Shown are controls with the wild-type ZRANB3 and the ATPase dead K65R mutant in the presence of ATP.
Oligonucleotides used in the nuclease assays (5′-[…]-[…]-3′ and Cy3 5′-end-labelled 5′-[…]-[…]-3′) were incubated in 10 mM Tris-HCl pH 7.5, 50 mM NaCl for 3 min at 94 °C, after which the reactions were allowed to gradually cool down.
The nuclease assays with ZRANB3 was performed essentially as described in ref. [9]. Briefly, reaction mixtures containing the indicated nuclease (200 nM) and fluorescently labelled DNA substrate (10 nM) in 10 μl of reaction buffer (50 mM Tris-HCl; 50 mM NaCl; 5 mM MgCl2; 2 mM ATP (Sigma); pH 7.5) were incubated at 30 °C for 60 min. The reactions were stopped by incubation with 0.1% SDS and 4 mg ml^−1 of proteinase K at 30 °C for 45 min. The reactions were then mixed with sucrose (10% final concentration) and resolved in a 10% polyacrylamide gel in 0.5 × TBE buffer (45 mM Tris-borate, 1 mM EDTA; pH 7.5). The fluorescent DNA species were visualized and quantified using Pharos Mx imager and Quantity one software (BioRad).

PCNA = PCNA pull-down with biotinylated PIP box and APIM motif peptides; assay type: binding; conditions: biotinylated peptides on streptavidin beads, recombinant PCNA, Western blotting with PCNA antibody (Fig. 4c)
Protocol: Figure 4 Stimulation of the ZRANB3 nuclease activity by PCNA. (a) Stimulation of FEN1 and ZRANB3 nuclease activities by PCNA. FEN1 or ZRANB3 nucleases were incubated with the DNA substrate and increasing concentrations of PCNA (0.375, 0.75, 1.5 and 3 μM), in the presence (ZRANB3) or absence (FEN1) of ATP. (b) Domain structure of ZRANB3. Conservation of the PIP box and the APIM motif residues among ZRANB3 proteins are shown in the alignments below. Mutated conserved residues in the PIP box and the APIM motif are indicated by arrows. (c) Interactions of the ZRANB3 PIP box and APIM motif with PCNA. Biotinylated PIP box and APIM motif peptides were bound to streptavidin beads and incubated with recombinant PCNA. The interaction was assayed by Western blotting with PCNA antibody. […] (d) Effect of PCNA (0.375, 0.75, 1.5 and 3 μM) on ZRANB3 nuclease activity assayed with the wild-type ZRANB3 and ZRANB3 PCNA binding mutants (ZRANB3-PIP*, ZRANB3-ΔAPIM and ZRANB3-PIP*ΔAPIM). (e) Quantification of nuclease activities in the presence of increasing concentrations of PCNA. […]
Biotinylated PIP-box and APIM-motif peptides were synthesized by Genscript. […] The beads were subsequently washed with the same buffer to remove unbound PCNA, after which they were boiled in the SDS-PAGE loading buffer, and analysed by anti-PCNA Western blotting (ab18197, 1:1,000 dilution).

| Compound | ZRANB3 endonuclease activity on substitution of ATP by non-hydrolysable ATP analogue (ZRANB3) | Interaction with PCNA (pull-down) (PCNA) |
| --- | --- | --- |
| Nc1ncnc2c1ncn2[C@@H]1O[C@H](COP(=O)(O)OP(=O)(O)CP(=O)(O)O)[C@@H](O)[C@H]1O [AMP-PCP] | complete loss of activity | – |
| Nc1ncnc2c1ncn2[C@@H]1O[C@H](COP(=O)(O)OP(=O)(O)NP(=O)(O)O)[C@@H](O)[C@H]1O [AMP-PNP] | complete loss of activity | – |
| Nc1ncnc2c1ncn2[C@@H]1O[C@H](CO[P@](=O)(O)O[P@](=O)(O)O[P@@](=O)(O)S)[C@@H](O)[C@H]1O [ATPγS] | complete loss of activity | – |
| APIM*: biotinylated ZRANB3 APIM motif peptide with F1075A mutation (pull-down) | – | abrogated the interaction with PCNA |
